In patent publication US10442807B2, “Aryl substituted bicyclic compounds as herbicides” (FMC Corporation, priority 2015, dated 2019):

Assays:
Format in all cases: in vivo
[1] = system: foxtail, giant (giant foxtail, Setaria faberii); assay: Test A preemergence, directed soil spray, visual injury rating; settings: approx. 10 d, 0 = no effect, 100 = complete control
Outline: (§1)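 Seeds sown in loam/sand soil got a directed soil spray before emergence, or plants at one- to two-leaf stage (2-10 cm) were sprayed postemergence; chemical in non-phytotoxic solvent with surfactant. Greenhouse approx. 10 d, then visual injury vs untreated controls on 0 (no effect) to 100 (complete control) scale.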

[2] = system: ryegrass, Italian (Italian ryegrass, Lolium multiflorum); assay: as above; settings: approx. 10 d, 0 = no effect, 100 = complete control
Outline: as §1

kochia (Kochia scoparia) [3] = assay: as above; settings: approx. 10 d, 0 = no effect, 100 = complete control
Outline: as §1

[4] = system: ragweed (common ragweed, Ambrosia elation); assay: as above; settings: approx. 10 d, 0 = no effect, 100 = complete control
Outline: as §1

[5] = system: pigweed (Amaranthus retroflexus); assay: as above; settings: approx. 10 d, 0 = no effect, 100 = complete control
Outline: as §1

[6] = system: barnyardgrass (Echinochloa crus-galli); assay: as above; settings: approx. 10 d, 0 = no effect, 100 = complete control
Outline: as §1

[7] = system: blackgrass (Alopecurus myosuroides); assay: Test A postemergence application, visual injury rating; settings: approx. 10 d, 0 = no effect, 100 = complete control
Outline: as §1

[8] = system: foxtail, giant (giant foxtail, Setaria faberii); assay: as above; settings: approx. 10 d, 0 = no effect, 100 = complete control
Outline: as §1

corn (Zea mays) = assay: as above; settings: approx. 10 d, 0 = no effect, 100 = complete control
Outline: as §1

[9] = system: ryegrass, Italian (Italian ryegrass, Lolium multiflorum); assay: as above; settings: approx. 10 d, 0 = no effect, 100 = complete control
Outline: as §1

[10] = system: wheat (Triticum aestivum); assay: as above; settings: approx. 10 d, 0 = no effect, 100 = complete control
Outline: as §1

[11] = system: galium (catchweed bedstraw, Galium aparine); assay: as above; settings: approx. 10 d, 0 = no effect, 100 = complete control
Outline: as §1

kochia (Kochia scoparia) [12] = assay: as above; settings: approx. 10 d, 0 = no effect, 100 = complete control
Outline: as §1

[13] = system: ragweed (common ragweed, Ambrosia elation); assay: as above; settings: approx. 10 d, 0 = no effect, 100 = complete control
Outline: as §1

[14] = system: pigweed (Amaranthus retroflexus); assay: as above; settings: approx. 10 d, 0 = no effect, 100 = complete control
Outline: as §1

[15] = system: barnyardgrass (Echinochloa crus-galli); assay: as above; settings: approx. 10 d, 0 = no effect, 100 = complete control
Outline: as §1

[16] = system: ducksalad (Heteranthera limosa); assay: Test B flooded paddy test, visual plant response rating; settings: 250 g ai/ha; applied to paddy water at 2-leaf stage; rated after 13 to 15 days; scale 0 to 100, 0 is no effect, 100 is complete control
Outline: (§2)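 Water stood 3 cm above the soil when compounds were applied into it, and it was kept there for the whole test. After 13 to 15 days in the greenhouse, plants were compared with controls and rated visually from 0 (no effect) to 100 (complete control).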

[17] = system: sedge, umbrella (small-flower umbrella sedge, Cyperus difformis); assay: as above; settings: 250 g ai/ha; applied to paddy water at 2-leaf stage; rated after 13 to 15 days; scale 0 to 100, 0 is no effect, 100 is complete control
Outline: as §2

rice (Oryza sativa) = assay: as above; settings: 250 g ai/ha; applied to paddy water at 2-leaf stage; rated after 13 to 15 days; scale 0 to 100, 0 is no effect, 100 is complete control
Outline: as §2

[18] = system: barnyardgrass (Echinochloa crus-galli); assay: as above; settings: 250 g ai/ha; applied to paddy water at 2-leaf stage; rated after 13 to 15 days; scale 0 to 100, 0 is no effect, 100 is complete control
Outline: as §2

SMILES | Foxtail, Giant plant response rating (0 to 100 scale) ([1]; 125 g ai/ha) | Foxtail, Giant plant response rating (0 to 100 scale) ([1]; 500 g ai/ha) | Ryegrass, Italian plant response rating (0 to 100 scale) ([2]; 125 g ai/ha) | Ryegrass, Italian plant response rating (0 to 100 scale) ([2]; 500 g ai/ha) | Kochia plant response rating (0 to 100 scale) (kochia (Kochia scoparia) [3]; 125 g ai/ha) | Kochia plant response rating (0 to 100 scale) (kochia (Kochia scoparia) [3]; 500 g ai/ha) | Ragweed plant response rating (0 to 100 scale) ([4]; 125 g ai/ha) | Ragweed plant response rating (0 to 100 scale) ([4]; 500 g ai/ha) | Pigweed plant response rating (0 to 100 scale) ([5]; 125 g ai/ha) | Pigweed plant response rating (0 to 100 scale) ([5]; 500 g ai/ha) | Barnyardgrass plant response rating (0 to 100 scale) ([6]; 125 g ai/ha) | Barnyardgrass plant response rating (0 to 100 scale) ([6]; 500 g ai/ha) | Blackgrass plant response rating (0 to 100 scale) ([7]; 125 g ai/ha) | Blackgrass plant response rating (0 to 100 scale) ([7]; 500 g ai/ha) | Foxtail, Giant plant response rating (0 to 100 scale) ([8]; 125 g ai/ha) | Foxtail, Giant plant response rating (0 to 100 scale) ([8]; 500 g ai/ha) | Corn plant response rating (0 to 100 scale) (corn (Zea mays); 125 g ai/ha) | Corn plant response rating (0 to 100 scale) (corn (Zea mays); 500 g ai/ha) | Ryegrass, Italian plant response rating (0 to 100 scale) ([9]; 125 g ai/ha) | Ryegrass, Italian plant response rating (0 to 100 scale) ([9]; 500 g ai/ha) | further results
Cc1ccc(C2Cn3cnnc3C2C(=O)Nc2ccccc2F)cc1 (stereo not drawn) [Compound 13] | 70 | 90 | 0 | 0 | 70 | 70 | 0 | 80 | 0 | 0 | 60 | 70 | 20 | 40 | 60 | 80 | 0 | 20 | 0 | 0 | Wheat plant response rating (0 to 100 scale) ([10]; 125 g ai/ha): 0; Wheat plant response rating (0 to 100 scale) ([10]; 500 g ai/ha): 0; Galium plant response rating (0 to 100 scale) ([11]; 125 g ai/ha): 40; Galium plant response rating (0 to 100 scale) ([11]; 500 g ai/ha): 40; Kochia plant response rating (0 to 100 scale) (kochia (Kochia scoparia) [12]; 125 g ai/ha): 0; Kochia plant response rating (0 to 100 scale) (kochia (Kochia scoparia) [12]; 500 g ai/ha): 30; Ragweed plant response rating (0 to 100 scale) ([13]; 125 g ai/ha): 0; Ragweed plant response rating (0 to 100 scale) ([13]; 500 g ai/ha): 30; Pigweed plant response rating (0 to 100 scale) ([14]; 125 g ai/ha): 0; Pigweed plant response rating (0 to 100 scale) ([14]; 500 g ai/ha): 0; Barnyardgrass plant response rating (0 to 100 scale) ([15]; 125 g ai/ha): 50; Barnyardgrass plant response rating (0 to 100 scale) ([15]; 500 g ai/ha): 90; Plant response rating, Flood, Ducksalad [16]: 45; Plant response rating, Flood, Sedge, Umbrella [17]: 0; Plant response rating, Flood, Rice (rice (Oryza sativa)): 20; Plant response rating, Flood, Barnyardgrass [18]: 40
CSc1ccccc1NC(=O)C1c2nnc(C)n2CC1c1ccc(C)c(C)c1 (stereo not drawn) [Compound 14] | 0 | 60 | 0 | 0 | 0 | 0 | 0 | 0 | 0 | 0 | 0 | 30 | 0 | 20 | 0 | 20 | 0 | 0 | 0 | 0 | Wheat plant response rating (0 to 100 scale) ([10]; 125 g ai/ha): 0; Wheat plant response rating (0 to 100 scale) ([10]; 500 g ai/ha): 0; Galium plant response rating (0 to 100 scale) ([11]; 125 g ai/ha): 0; Galium plant response rating (0 to 100 scale) ([11]; 500 g ai/ha): 0; Kochia plant response rating (0 to 100 scale) (kochia (Kochia scoparia) [12]; 125 g ai/ha): 0; Kochia plant response rating (0 to 100 scale) (kochia (Kochia scoparia) [12]; 500 g ai/ha): 0; Ragweed plant response rating (0 to 100 scale) ([13]; 125 g ai/ha): 0; Ragweed plant response rating (0 to 100 scale) ([13]; 500 g ai/ha): 0; Pigweed plant response rating (0 to 100 scale) ([14]; 125 g ai/ha): 0; Pigweed plant response rating (0 to 100 scale) ([14]; 500 g ai/ha): 0; Barnyardgrass plant response rating (0 to 100 scale) ([15]; 125 g ai/ha): 0; Barnyardgrass plant response rating (0 to 100 scale) ([15]; 500 g ai/ha): 20; Plant response rating, Flood, Ducksalad [16]: 60; Plant response rating, Flood, Sedge, Umbrella [17]: 0; Plant response rating, Flood, Rice (rice (Oryza sativa)): 0; Plant response rating, Flood, Barnyardgrass [18]: 20
CCc1ccc(C2Cn3c(C)nnc3C2C(=O)Nc2ccccc2SC)cc1 (stereo not drawn) [Compound 15] | 0 | 0 | 0 | 0 | 0 | 0 | 0 | 0 | 0 | 0 | 0 | 0 | 0 | 0 | 0 | 0 | 0 | 0 | 0 | 0 | Wheat plant response rating (0 to 100 scale) ([10]; 125 g ai/ha): 0; Wheat plant response rating (0 to 100 scale) ([10]; 500 g ai/ha): 0; Galium plant response rating (0 to 100 scale) ([11]; 125 g ai/ha): 0; Galium plant response rating (0 to 100 scale) ([11]; 500 g ai/ha): 0; Kochia plant response rating (0 to 100 scale) (kochia (Kochia scoparia) [12]; 125 g ai/ha): 0; Kochia plant response rating (0 to 100 scale) (kochia (Kochia scoparia) [12]; 500 g ai/ha): 0; Ragweed plant response rating (0 to 100 scale) ([13]; 125 g ai/ha): 0; Ragweed plant response rating (0 to 100 scale) ([13]; 500 g ai/ha): 0; Pigweed plant response rating (0 to 100 scale) ([14]; 125 g ai/ha): 0; Pigweed plant response rating (0 to 100 scale) ([14]; 500 g ai/ha): 0; Barnyardgrass plant response rating (0 to 100 scale) ([15]; 125 g ai/ha): 0; Barnyardgrass plant response rating (0 to 100 scale) ([15]; 500 g ai/ha): 0; Plant response rating, Flood, Ducksalad [16]: 50; Plant response rating, Flood, Sedge, Umbrella [17]: 0; Plant response rating, Flood, Rice (rice (Oryza sativa)): 20; Plant response rating, Flood, Barnyardgrass [18]: 0
